This is an account of results in patent EP4803513A1, “SUBSTITUTED QUINAZOLINE COMPOUND, PREPARATION METHOD THEREFOR, PHARMACEUTICAL COMBINATION THEREOF, AND USE THEREOF” (Hongyun Biotech Co., Ltd., priority 2023, dated 2025).

This experiment relates to BRK-BaF3 cells. The experiment is described as follows: Cell antiproliferative activity assay (CCK-8), BRK-BaF3. The experiment is classed as cell-based. As to conditions: 72 h, CCK-8, 3 days incubation. The method, then:
The activity of compounds against BRK kinase can be evaluated by their inhibition of the growth of the BRK kinase-stably transfected BaF3 cell line (BRK-BaF3) and wild-type BaF3 cells (WT-BaF3). […] The larger the ratio of the half-maximal growth inhibitory concentration (IC50) of a compound between WT-BaF3 and BRK-BaF3 cells, the better the selectivity of the compound.
BRK-BaF3, WT-BaF3, WEHI cell line, and breast cancer cell line T47D were cultured using RPMI 1640 Basal medium or DMEM (Dulbecco's Modified Eagle Medium) (Shanghai Peiyuan Biotechnology, L220KJ), supplemented with 10% FBS (Gibco, REF 10099-141C) and 1% P/S (Shanghai Peiyuan Biotechnology, S110JV), in an incubator (Thermo 3020) at 37°C with 5% CO2. Cell viability was above 95%. Cells were passaged at a 3:1 ratio every 3-4 days. For WT-BaF3 cells, WEHI cells were first cultured, and their culture supernatant was filtered through a 0.22 µm filter. This supernatant was added at 10% to the regular culture medium to supplement IL-3 required for WT-BaF3 cell proliferation, which served as the culture medium for WT-BaF3. For testing, cells were first collected and counted, then prepared into a cell suspension at 100,000 cells/mL and plated at 100 µL per well. Drug concentrations started from 10 µM and were serially diluted 3:1. After incubation for 3 days, 20 µL of CCK-8 detection reagent (Targetmol C005) was added to each well. After incubation for 2-4 hours, OD450 was measured using a microplate reader (Varioskan LUX, Thermo Scientific). After subtracting the blank background, the curve was fitted and the IC50 was calculated using XLfit software.
In general, IC50 refers to the midpoint of a concentration-inhibition curve. In turn, `Cc1ccc(C#N)nc1-c1cc(C(C)C)c2nc(Nc3cn(CCO)nc3C)ncc2c1` [I-5] had an IC50 of at most 20 nM. With `Cc1nn(CCO)cc1Nc1ncc2cc(-c3ccnc(F)c3F)cc(C(C)C)c2n1` [I-15] the figure was 20 to 100 nM; with `Cc1nn(CCO)cc1Nc1ncc2cc(-c3cc(F)ncc3F)cc(C(C)C)c2n1` [I-16], at most 20 nM.

Turning to `CC(=O)c1cc(-c2cc(C(C)C)c3nc(Nc4cn(CCO)nc4C)ncc3c2)ccn1` [I-18], the IC50 is at most 20 nM.

Take `Cc1cnc(F)cc1-c1cc(C(C)C)c2nc(Nc3cnn(CCO)c3C)ncc2c1` [I-19]: the IC50 fell in the range of 20 to 100 nM. The figure for `Cc1nn(CCO)cc1Nc1ncc2cc(-c3cccnc3C(F)F)cc(C(C)C)c2n1` [I-23] is 20 to 100 nM; for `CCc1ncccc1-c1cc(C(C)C)c2nc(Nc3cn(CCO)nc3C)ncc2c1` [I-24] it is at most 20 nM; for `Cc1nn(CCO)cc1Nc1ncc2cc(-c3cncc(Br)c3Cl)cc(C(C)C)c2n1` [I-37] it is at most 20 nM. The compound `Cc1nn(CCO)cc1Nc1ncc2cc(-c3cncc(Cl)c3Cl)cc(C(C)C)c2n1` [I-38] yielded a 50% inhibitory concentration (IC50) of at most 20 nM. With `Cc1c(Nc2ncc3cc(-c4cnccc4F)cc(C(C)C)c3n2)cnn1CCO` [I-58] the figure was 20 to 100 nM; with `Cc1c(Nc2ncc3cc(-c4cnccc4C#N)cc(C(C)C)c3n2)cnn1CCO` [I-63], 20 to 100 nM; with `Cc1c(F)cncc1-c1cc(C(C)C)c2nc(Nc3cnn(CCO)c3C)ncc2c1` [I-67], at most 20 nM. Compound `Cc1ncc(F)cc1-c1cc(C(C)C)c2nc(Nc3cnn(CCO)c3C)ncc2c1` [I-69] showed an IC50 of 20 to 100 nM. With `Cc1c(Nc2ncc3cc(-c4c(F)ccnc4F)cc(C(C)C)c3n2)cnn1CCO` [I-70] the figure was at most 20 nM; with `Cc1ccnc(C)c1-c1cc(C(C)C)c2nc(Nc3cnn(CCO)c3C)ncc2c1` [I-71], at most 20 nM. The figure for `Cc1nn(CCO)cc1Nc1ncc2cc(-c3nccnc3Cl)cc(C(C)C)c2n1` [I-80] is at most 20 nM; for `Cc1nn(CCO)cc1Nc1ncc2cc(-c3cncc(Cl)n3)cc(C(C)C)c2n1` [I-89] it is 20 to 100 nM; for `COc1cncc(-c2cc(C(C)C)c3nc(Nc4cn(CCO)nc4C)ncc3c2)n1` [I-91] it is 20 to 100 nM. With `Cc1nn(CCO)cc1Nc1ncc2cc(-c3cccnn3)cc(C(C)C)c2n1` [I-115] the figure was 20 to 100 nM; with `Cc1ncnc(C)c1-c1cc(C(C)C)c2nc(Nc3cnn(CCO)c3C)ncc2c1` [I-145], 20 to 100 nM. For the compound `Cc1nn(CCO)cc1Nc1ncc2cc(-c3cccc(F)c3F)cc(C(C)C)c2n1` [I-156], the IC50 was at most 20 nM.

`Cc1nn(CCO)cc1Nc1ncc2cc(-c3cc(F)cc(F)c3)cc(C(C)C)c2n1` [I-158] yielded an IC50 of at most 20 nM.

For the compound `Cc1nn(CCO)cc1Nc1ncc2cc(-c3cc(F)ccc3F)cc(C(C)C)c2n1` [I-159], the IC50 is at most 20 nM. Regarding `Cc1ccc(F)cc1-c1cc(C(C)C)c2nc(Nc3cn(CCO)nc3C)ncc2c1` [I-161], the IC50 is at most 20 nM. `Cc1nn(CCO)cc1Nc1ncc2cc(-c3cccc4c3OCO4)cc(C(C)C)c2n1` [I-163] displayed an IC50 of at most 20 nM. For `Cc1nn(CCO)cc1Nc1ncc2cc(-c3cccc4c3OCO4)cc(C3CC3)c2n1` [I-166], the IC50 fell in the range of 20 to 100 nM. With `Cc1c(Nc2ncc3cc(-c4cc(F)ccc4F)cc(C(C)C)c3n2)cnn1CCO` [I-169] the figure was 20 to 100 nM.

`Cc1ccc(F)cc1-c1cc(C(C)C)c2nc(Nc3cnn(CCO)c3C)ncc2c1` [I-171] registered an IC50 of at most 20 nM. As for `Cc1c[nH]c(=O)cc1-c1cc(C(C)C)c2nc(Nc3cn(CCO)nc3C)ncc2c1` [I-172], the IC50 was at most 20 nM. With `Cc1c[nH]c(=O)cc1-c1cc(C(C)C)c2nc(Nc3cn(C(C)(C)CO)nc3C)ncc2c1` [I-173] the figure was 20 to 100 nM; with `Cc1c[nH]c(=O)cc1-c1cc(C(C)C)c2nc(Nc3cnn(CCO)c3)ncc2c1` [I-174], at most 20 nM. In turn, `Cc1c[nH]c(=O)cc1-c1cc(C(C)C)c2nc(Nc3cn(CC(C)(C)O)nc3C)ncc2c1` [I-175] returned an IC50 of at most 20 nM.
